{
  "source": "patent US8192962B2",
  "about": "“Processes for detecting toxic substances” (Daikin Industries, Ltd., priority 2001, dated 2012)",
  "tested_on": "Mitochondria-located protein genes",
  "experiment": "DNA chip mRNA expression in yeast, mitochondria-located protein genes (Table 2)",
  "format": "cell-based, Saccharomyces cerevisiae S288C",
  "details": "cells incubated two hours with the chemical substance",
  "procedure,_shortened": "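S. cerevisiae S288C grown at 25° C in YPD were exposed in log phase for two hours to one toxic chemical at a growth-inhibiting, non-lethal concentration; untreated cells served as control. Poly(A) mRNA was reverse-transcribed with Cy3/Cy5-dUTP and hybridized to a whole-genome yeast DNA chip at 65° C for over 12 hours; values are fluorescence ratios versus untreated.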",
  "data": [
    {"smiles": "Oc1cc(Cl)c(Cl)cc1Cl", "note": "[(6), 2,4,5-trichlorophenol]", "values": [
      {"measurement": "The level of expressed mRNA in the presence of chemical substance/The level of expressed mRNA in the absence of chemical substance", "setting": "yeast gene YJR121W", "value": 1.5},
      {"measurement": "The level of expressed mRNA in the presence of chemical substance/The level of expressed mRNA in the absence of chemical substance", "setting": "yeast gene YKL003C", "value": 1.0},
      {"measurement": "The level of expressed mRNA in the presence of chemical substance/The level of expressed mRNA in the absence of chemical substance", "setting": "yeast gene YKL016C", "value": 0.8},
      {"measurement": "The level of expressed mRNA in the presence of chemical substance/The level of expressed mRNA in the absence of chemical substance", "setting": "yeast gene YKL141W", "value": 1.2},
      {"measurement": "The level of expressed mRNA in the presence of chemical substance/The level of expressed mRNA in the absence of chemical substance", "setting": "yeast gene YKL142W", "value": 3.4},
      {"measurement": "The level of expressed mRNA in the presence of chemical substance/The level of expressed mRNA in the absence of chemical substance", "setting": "yeast gene YKL148C", "value": 0.5},
      {"measurement": "The level of expressed mRNA in the presence of chemical substance/The level of expressed mRNA in the absence of chemical substance", "setting": "yeast gene YKL170W", "value": 1.5},
      {"measurement": "The level of expressed mRNA in the presence of chemical substance/The level of expressed mRNA in the absence of chemical substance", "setting": "yeast gene YKL194C", "value": 1.4},
      {"measurement": "The level of expressed mRNA in the presence of chemical substance/The level of expressed mRNA in the absence of chemical substance", "setting": "yeast gene YKR066C", "value": 0.9},
      {"measurement": "The level of expressed mRNA in the presence of chemical substance/The level of expressed mRNA in the absence of chemical substance", "setting": "yeast gene YLL041C", "value": 1.2},
      {"measurement": "The level of expressed mRNA in the presence of chemical substance/The level of expressed mRNA in the absence of chemical substance", "setting": "yeast gene YLR038C", "value": 1.2},
      {"measurement": "The level of expressed mRNA in the presence of chemical substance/The level of expressed mRNA in the absence of chemical substance", "setting": "yeast gene YLR259C", "value": 0.9},
      {"measurement": "The level of expressed mRNA in the presence of chemical substance/The level of expressed mRNA in the absence of chemical substance", "setting": "yeast gene YLR295C", "value": 1.1},
      {"measurement": "The level of expressed mRNA in the presence of chemical substance/The level of expressed mRNA in the absence of chemical substance", "setting": "yeast gene YLR304C", "value": 1.9},
      {"measurement": "The level of expressed mRNA in the presence of chemical substance/The level of expressed mRNA in the absence of chemical substance", "setting": "yeast gene YLR348C", "value": 1.9},
      {"measurement": "The level of expressed mRNA in the presence of chemical substance/The level of expressed mRNA in the absence of chemical substance", "setting": "yeast gene YLR395C", "value": 0.4},
      {"measurement": "The level of expressed mRNA in the presence of chemical substance/The level of expressed mRNA in the absence of chemical substance", "setting": "yeast gene YML054C", "value": 1.8},
      {"measurement": "The level of expressed mRNA in the presence of chemical substance/The level of expressed mRNA in the absence of chemical substance", "setting": "yeast gene YML120C", "value": 0.6},
      {"measurement": "The level of expressed mRNA in the presence of chemical substance/The level of expressed mRNA in the absence of chemical substance", "setting": "yeast gene YML129C", "value": 1.7},
      {"measurement": "The level of expressed mRNA in the presence of chemical substance/The level of expressed mRNA in the absence of chemical substance", "setting": "yeast gene YMR023C", "value": 1.1},
      {"measurement": "The level of expressed mRNA in the presence of chemical substance/The level of expressed mRNA in the absence of chemical substance", "setting": "yeast gene YMR035W", "value": 1.5},
      {"measurement": "The level of expressed mRNA in the presence of chemical substance/The level of expressed mRNA in the absence of chemical substance", "setting": "yeast gene YMR083W", "value": 1.8},
      {"measurement": "The level of expressed mRNA in the presence of chemical substance/The level of expressed mRNA in the absence of chemical substance", "setting": "yeast gene YMR089C", "value": 1.2},
      {"measurement": "The level of expressed mRNA in the presence of chemical substance/The level of expressed mRNA in the absence of chemical substance", "setting": "yeast gene YMR152W", "value": 7.5},
      {"measurement": "The level of expressed mRNA in the presence of chemical substance/The level of expressed mRNA in the absence of chemical substance", "setting": "yeast gene YMR203W", "value": 1.1},
      {"measurement": "The level of expressed mRNA in the presence of chemical substance/The level of expressed mRNA in the absence of chemical substance", "setting": "yeast gene YMR267W", "value": 1.4},
      {"measurement": "The level of expressed mRNA in the presence of chemical substance/The level of expressed mRNA in the absence of chemical substance", "setting": "yeast gene YNL055C", "value": 2.6},
      {"measurement": "The level of expressed mRNA in the presence of chemical substance/The level of expressed mRNA in the absence of chemical substance", "setting": "yeast gene YNL071W", "value": 1.3},
      {"measurement": "The level of expressed mRNA in the presence of chemical substance/The level of expressed mRNA in the absence of chemical substance", "setting": "yeast gene YNL073W", "value": 0.5},
      {"measurement": "The level of expressed mRNA in the presence of chemical substance/The level of expressed mRNA in the absence of chemical substance", "setting": "yeast gene YNL104C", "value": 0.8},
      {"measurement": "The level of expressed mRNA in the presence of chemical substance/The level of expressed mRNA in the absence of chemical substance", "setting": "yeast gene YNL256W", "value": 0.5},
      {"measurement": "The level of expressed mRNA in the presence of chemical substance/The level of expressed mRNA in the absence of chemical substance", "setting": "yeast gene YOL096C", "value": 1.3},
      {"measurement": "The level of expressed mRNA in the presence of chemical substance/The level of expressed mRNA in the absence of chemical substance", "setting": "yeast gene YOR020C", "value": 2.3},
      {"measurement": "The level of expressed mRNA in the presence of chemical substance/The level of expressed mRNA in the absence of chemical substance", "setting": "yeast gene YOR037W", "value": 1.6},
      {"measurement": "The level of expressed mRNA in the presence of chemical substance/The level of expressed mRNA in the absence of chemical substance", "setting": "yeast gene YOR100C", "value": 1.2},
      {"measurement": "The level of expressed mRNA in the presence of chemical substance/The level of expressed mRNA in the absence of chemical substance", "setting": "yeast gene YOR130C", "value": 1.6},
      {"measurement": "The level of expressed mRNA in the presence of chemical substance/The level of expressed mRNA in the absence of chemical substance", "setting": "yeast gene YOR142W", "value": 1.6},
      {"measurement": "The level of expressed mRNA in the presence of chemical substance/The level of expressed mRNA in the absence of chemical substance", "setting": "yeast gene YOR150W", "value": 0.9},
      {"measurement": "The level of expressed mRNA in the presence of chemical substance/The level of expressed mRNA in the absence of chemical substance", "setting": "yeast gene YOR176W", "value": 0.9},
      {"measurement": "The level of expressed mRNA in the presence of chemical substance/The level of expressed mRNA in the absence of chemical substance", "setting": "yeast gene YOR187W", "value": 1.7},
      {"measurement": "The level of expressed mRNA in the presence of chemical substance/The level of expressed mRNA in the absence of chemical substance", "setting": "yeast gene YOR316C", "value": 0.9},
      {"measurement": "The level of expressed mRNA in the presence of chemical substance/The level of expressed mRNA in the absence of chemical substance", "setting": "yeast gene YPL040C", "value": 1.1},
      {"measurement": "The level of expressed mRNA in the presence of chemical substance/The level of expressed mRNA in the absence of chemical substance", "setting": "yeast gene YPL134C", "value": 1.2},
      {"measurement": "The level of expressed mRNA in the presence of chemical substance/The level of expressed mRNA in the absence of chemical substance", "setting": "yeast gene YPL135W", "value": 1.3},
      {"measurement": "The level of expressed mRNA in the presence of chemical substance/The level of expressed mRNA in the absence of chemical substance", "setting": "yeast gene YPL215W", "value": 0.7},
      {"measurement": "The level of expressed mRNA in the presence of chemical substance/The level of expressed mRNA in the absence of chemical substance", "setting": "yeast gene YPL262W", "value": 1.6},
      {"measurement": "The level of expressed mRNA in the presence of chemical substance/The level of expressed mRNA in the absence of chemical substance", "setting": "yeast gene YPR024W", "value": 1.0},
      {"measurement": "The level of expressed mRNA in the presence of chemical substance/The level of expressed mRNA in the absence of chemical substance", "setting": "yeast gene YPR037C", "value": 0.9},
      {"measurement": "The level of expressed mRNA in the presence of chemical substance/The level of expressed mRNA in the absence of chemical substance", "setting": "yeast gene YPR047W", "value": 1.0},
      {"measurement": "The level of expressed mRNA in the presence of chemical substance/The level of expressed mRNA in the absence of chemical substance", "setting": "yeast gene YPR134W", "value": 0.6}
    ]}
  ]
}
